From US20090269753A1 (priority 2007, published 2009)

Tests used:
fasl = fasl real-time RT-PCR in SRC-1-/- osteoclasts transfected with SRC-1 WT or P1272S; type: cell-based, mice; details: estradiol 10 nM or 40H-Tamoxifen 1 μM, 24 h
[1] = Hip and lumbar BMD by DXA at baseline and after 12 months of tamoxifen treatment; type: in vivo, women
Description: Patients were enrolled after they had completed all primary surgery, radiation, and adjuvant chemotherapy.

[2] = SRC-1-/- osteoclasts with P1272S SRC-1
[3] = SRC-1-/- osteoclasts with transfected Flag-SRC-1 WT vs vector alone

SMILES | Induction of fasl (fasl; [2]) | Induction of fasl (fasl; [3]) | Lumbar BMD decrease ([1]; P1272S carriers (n=4), p=0.04 vs women without the SNP) [%] | hip BMD decrease ([1]; SNP carriers (n=4), p=0.08 vs WT group) [%] | hip BMD decrease ([1]; WT group (n=102)) [%] | Lumbar BMD decrease ([1]; women without the SNP (n=107)) [%]
C[C@]12CC[C@@H]3c4ccc(O)cc4CC[C@H]3[C@@H]1CC[C@@H]2O [Estrogen, estradiol] | failed to upregulate fasl | detectable |  |  |  | 
CC/C(=C(\c1ccccc1)c1ccc(OCCN(C)C)cc1)c1ccccc1 [Tamoxifen, tamoxifen] | failed to upregulate fasl | detectable | 6.4 | 4.3 | 0.6 | 1.3
